Results: US5968910A, “Compositions containing two or three inhibitors of different HIV reverse transcriptases” (priority 1994, dated 1999)
Converted amounts (≈) assume the structure as drawn. Like-named read-outs stand apart in the source and are kept apart here.

Tests used:
Assay type in all cases: cell-based
[1] = tested on: HIV-1/TIBO R82913 (103-Asn); test: Sensitivity of mutant HIV-1 strain in CEM cell cultures; conditions: Human immunodeficiency virus 1, CCRF-CEM; CEM cells, Table 1; read-out: 50% Effective Concentration
Method in brief: (§1)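 Infect CEM cells (250,000 cells per ml) with virus at 100 CCID50/ml; add infected suspension to wells holding diluted compound; incubate 4 days, 37° C.; examine for syncytia.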

HIV-1/IV(0.1) 103-Thr = test: as above; conditions: Human immunodeficiency virus 1, CCRF-CEM; Table 5; read-out: EC50
Method in brief: as §1

HIV-1/II(0.1) 100-Ile = test: as above; conditions: Human immunodeficiency virus 1, CCRF-CEM; Table 5; read-out: EC50
Method in brief: as §1

[2] = tested on: HIV-1/TIBO R82150 (100-Ile); test: as above; conditions: Human immunodeficiency virus 1, CCRF-CEM; CEM cells, Table 1; read-out: 50% Effective Concentration
Method in brief: as §1

HIV-1/V(0.5) 103-Asn = test: as above; conditions: Human immunodeficiency virus 1, CCRF-CEM; Table 5; read-out: EC50
Method in brief: as §1

HIV-1/I(0.1) 103-Asn = test: as above; conditions: Human immunodeficiency virus 1, CCRF-CEM; Table 5; read-out: EC50
Method in brief: as §1

HIV-1/Nev (106-Ala) = test: as above; conditions: Human immunodeficiency virus 1, CCRF-CEM; CEM cells, Table 1; read-out: 50% Effective Concentration
Method in brief: as §1

HIV-1/Pyr (181-Cys) = test: as above; conditions: Human immunodeficiency virus 1, CCRF-CEM; CEM cells, Table 1; read-out: 50% Effective Concentration
Method in brief: as §1

HIV-1/III(0.1) 103-Asn = test: as above; conditions: Human immunodeficiency virus 1, CCRF-CEM; Table 5; read-out: EC50
Method in brief: as §1

[3] = tested on: HIV-1/TSAO-m^3 T (138-Lys); test: as above; conditions: Human immunodeficiency virus 1, CCRF-CEM; CEM cells, Table 1; read-out: 50% Effective Concentration
Method in brief: as §1

[4] = tested on: HIV-1/V(0.1) 101-Ile + 141-Glu; test: as above; conditions: Human immunodeficiency virus 1, CCRF-CEM; Table 5; read-out: EC50
Method in brief: as §1

HIV-1(IIIB) = test: Knock-out concentrations: breakthrough of HIV-1(IIIB)-induced cytopathicity in CEM cell cultures; conditions: for activity at 0.1 µg/mL / activity at 0.5 µg/mL / activity at 2.5 µg/mL: Human immunodeficiency virus 1, IIIB, CCRF-CEM, read-out: HIV-1-induced cytopathicity in cell culture; for activity at 0.1 µg/mL: 0.1 μg/ml; for activity at 0.5 µg/mL: 0.5 μg/ml; for activity at 2.5 µg/mL: 2.5 μg/ml
Method in brief: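 CEM cells in RPMI 1640 with 10% FBS infected with HIV-1(IIIB) at ~1000× CCID50, subcultured every 3–4 days into fresh uninfected cells with drug held constant for 10 subcultivations (35 days), then ≥5 drug-free passages. Breakthrough scored by syncytium formation. Combinations used the two lowest single-drug starting concentrations.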

HIV-1(IIIB) (WT) = test: microbe, parasite or virus in culture; conditions: Human immunodeficiency virus 1, IIIB, CCRF-CEM
Method in brief: as §1

[5] = 936 h, day 39 post infection, compound absent from day 35
[6] = 1008 h, day 42 post infection, compound absent from day 35
[7] = 1104 h, day 46 post infection, compound absent from day 35
[8] = 1176 h, day 49 post infection, compound absent from day 35
[9] = 1272 h, day 53 post infection, compound absent from day 35

Cc1occc1C(=S)Nc1ccc(Cl)c(C(=O)OCC(C)C)c1 [Compound II]
EC50 [1]: 0.45 µg/mL (≈ 1.28 µM)
EC50 (HIV-1/IV(0.1) 103-Thr): 0.4 µg/mL (≈ 1.14 µM)
EC50 (HIV-1/II(0.1) 100-Ile): 0.5 µg/mL (≈ 1.42 µM)
EC50 [2]: 0.19 µg/mL (≈ 0.54 µM)
EC50 (HIV-1/V(0.5) 103-Asn): 0.8 µg/mL (≈ 2.27 µM)
EC50 (HIV-1/I(0.1) 103-Asn): 0.15 µg/mL (≈ 0.426 µM)
EC50 (HIV-1/Nev (106-Ala)): 0.075 µg/mL (≈ 0.213 µM)
EC50 (HIV-1/Pyr (181-Cys)): 0.07 µg/mL (≈ 0.199 µM)
EC50 (HIV-1/III(0.1) 103-Asn): 0.16 µg/mL (≈ 0.455 µM)
EC50 [3]: 0.06 µg/mL (≈ 0.171 µM)
EC50 [4]: 0.06 µg/mL (≈ 0.171 µM)
prevention of virus breakthrough, fold more efficient than BHAP (HIV-1(IIIB)): at least 5 fold
prevention of virus breakthrough, fold more efficient than nevirapine (HIV-1(IIIB)): ≥ 25 fold
activity at 0.1 µg/mL (HIV-1(IIIB); 96 h, day 4 post infection): 0%
activity at 0.5 µg/mL (HIV-1(IIIB); 96 h, day 4 post infection): 0%
activity at 2.5 µg/mL (HIV-1(IIIB); 96 h, day 4 post infection): 0%
activity at 0.1 µg/mL (HIV-1(IIIB); 192 h, day 8 post infection): 0%
activity at 0.5 µg/mL (HIV-1(IIIB); 192 h, day 8 post infection): 0%
activity at 2.5 µg/mL (HIV-1(IIIB); 192 h, day 8 post infection): 0%
activity at 0.1 µg/mL (HIV-1(IIIB); 264 h, day 11 post infection): 0%
activity at 0.5 µg/mL (HIV-1(IIIB); 264 h, day 11 post infection): 0%
activity at 2.5 µg/mL (HIV-1(IIIB); 264 h, day 11 post infection): 0%
activity at 0.1 µg/mL (HIV-1(IIIB); 336 h, day 14 post infection): 12.5%
activity at 0.5 µg/mL (HIV-1(IIIB); 336 h, day 14 post infection): 0%
activity at 2.5 µg/mL (HIV-1(IIIB); 336 h, day 14 post infection): 0%
activity at 0.1 µg/mL (HIV-1(IIIB); 408 h, day 17 post infection): 50%
activity at 0.5 µg/mL (HIV-1(IIIB); 408 h, day 17 post infection): 0%
activity at 2.5 µg/mL (HIV-1(IIIB); 408 h, day 17 post infection): 0%
activity at 0.1 µg/mL (HIV-1(IIIB); 504 h, day 21 post infection): 100%
activity at 0.5 µg/mL (HIV-1(IIIB); 504 h, day 21 post infection): 0%
activity at 2.5 µg/mL (HIV-1(IIIB); 504 h, day 21 post infection): 0%
activity at 0.1 µg/mL (HIV-1(IIIB); 600 h, day 25 post infection): 100%
activity at 0.5 µg/mL (HIV-1(IIIB); 600 h, day 25 post infection): 0%
activity at 2.5 µg/mL (HIV-1(IIIB); 600 h, day 25 post infection): 0%
activity at 0.1 µg/mL (HIV-1(IIIB); 672 h, day 28 post infection): 100%
activity at 0.5 µg/mL (HIV-1(IIIB); 672 h, day 28 post infection): 0%
activity at 2.5 µg/mL (HIV-1(IIIB); 672 h, day 28 post infection): 0%
activity at 0.1 µg/mL (HIV-1(IIIB); 768 h, day 32 post infection): 100%
activity at 0.5 µg/mL (HIV-1(IIIB); 768 h, day 32 post infection): 0%
activity at 2.5 µg/mL (HIV-1(IIIB); 768 h, day 32 post infection): 0%
activity at 0.1 µg/mL (HIV-1(IIIB); 840 h, day 35 post infection): 100%
activity at 0.5 µg/mL (HIV-1(IIIB); 840 h, day 35 post infection): 0%
activity at 2.5 µg/mL (HIV-1(IIIB); 840 h, day 35 post infection): 0%
activity at 0.1 µg/mL (HIV-1(IIIB); [5]): 100%
activity at 0.5 µg/mL (HIV-1(IIIB); [5]): 0%
activity at 2.5 µg/mL (HIV-1(IIIB); [5]): 0%
activity at 0.1 µg/mL (HIV-1(IIIB); [6]): 100%
activity at 0.5 µg/mL (HIV-1(IIIB); [6]): 0%
activity at 2.5 µg/mL (HIV-1(IIIB); [6]): 0%
activity at 0.1 µg/mL (HIV-1(IIIB); [7]): 100%
activity at 0.5 µg/mL (HIV-1(IIIB); [7]): 0%
activity at 2.5 µg/mL (HIV-1(IIIB); [7]): 0%
activity at 0.1 µg/mL (HIV-1(IIIB); [8]): 100%
activity at 0.5 µg/mL (HIV-1(IIIB); [8]): 0%
activity at 2.5 µg/mL (HIV-1(IIIB); [8]): 0%
activity at 0.1 µg/mL (HIV-1(IIIB); [9]): 100%
activity at 0.5 µg/mL (HIV-1(IIIB); [9]): 0%
activity at 2.5 µg/mL (HIV-1(IIIB); [9]): 0%
concentration at which virus emerged (virus breakthrough) (HIV-1(IIIB); tested at 0.1, 0.5 and 2.5 μg/ml, 35 days): 0.1 µg/mL
EC50 (HIV-1(IIIB) (WT); CEM cells, Table 1, read-out: 50% Effective Concentration): 0.01 µg/mL (≈ 0.0284 µM)
EC50 (HIV-1(IIIB) (WT); HIV-1 (III8), Table 5, read-out: EC50): 0.007 µg/mL (≈ 0.0199 µM)
IC50 (HIV-1(IIIB) (WT); range stated for Compounds I-V together, read-out: 50% inhibitory concentration, HIV-1(IIIB) replication in CEM cells): 0.004 to 0.05 µg/mL (≈ 0.0114 to 0.142 µM)
